This is an account of results in patent US6607522B1, “Methods for tissue welding using laser-activated protein solders” (General Hospital Corporation, priority 2000, dated 2003).

The test system of data set [1] is 5 mm incision on equatorial sclera of human cadaveric eyes. Nature of the data set: Leaking pressure of laser-welded scleral incisions in cadaveric eyes. An excerpt:
Welding Procedure: To measure leaking pressures, an 18-gauge butterfly needle was connected by plastic tubing to a water bottle. The inner pressure in the bottle was controlled by a hand-pumped sphygmomanometer. Nonpreserved cadaveric eyes were defrosted in room-temperature water. The butterfly needle was inserted in the vitreous cavity through equatorial sclera, and the eye was pressurized to 25 to 30 mm Hg. The corneal epithelium was then removed at the wound site, and a caliper set on 5 mm used to make the extent of the incision on equatorial sclera, perpendicular to the limbus. All incisions were placed equidistant from the limbus, and areas of blue or thin sclera were avoided. […] The exact power output of the fiber was measured using a power meter (model 210; Coherent, Palo Alto, Calif.). Argon laser goggles (Glendale Protective Technologies, Lakeland, Fla.) were worn, which allowed viewing of the fluorescence from the Ce6 (emission 670 nm). To set the remaining adhesive on the scleral surface, which surrounded the wound, additional laser was applied until loss of fluorescence of the dye, which took another 30 to 45 seconds.
Leaking Pressure: Leaking pressures were then measured using the sphygmomanometer, which was increasingly pressurized in approximately 10-mm Hg increments. Leaking pressure was recorded the moment the wound leaked air or fluid. […]

For data set [2] the following is noted: in vitro; cited from earlier work.

As to “BSA − Ce6 conjugate: Covalent bovine serum albumin-chlorin e6 conjugate solder; protein 5.2 mM, Ce6 6.2 mM, ratio 0.84”, the “Mean Leaking Pressure” value in data set [1] (argon blue-green laser 488-514 nm, total energy 24-57 J, 60-120 s, mean ± spread) is recorded as 78.0 ± 11.9 millimeters of mercury. The “Mean Leaking Pressure/Total Energy Ratio” value in data set [1] (leaking pressure in mm Hg, total energy in joules) amounted to 1.75 ± 0.26.

As for `CC1(C)C(/C=C/C=C/C=C/C=C2\N(CCCCS(=O)(=O)O)c3ccc4ccccc4c3C2(C)C)=[N+](CCCCS(=O)(=O)[O-])c2ccc3ccccc3c21` [indocyanine green], in data set [2], the triplet yield is listed as 0.11.
